Experimental data published in patent US12264173B2 (GILEAD SCIENCES, INC., priority 2020, dated 2025).
Read-outs that look alike come from different tables or passages of the source.

Tests used:
Type in all cases: cell-based
[1] = system: DENV2 replicon; assay: DENV-2 Huh-7 Rep EC50 (replicon luminescence)
Description: In 384 well plates (Greiner, Cat #781091), compounds were acoustically transferred at 200 nl per well in a 8 compound (4 replicates) or 40 compound dose response format (3 replicates). For all plates tested, Balapiravir, GS-5734 and NITD008 were included as positive inhibition controls alongside 0% inhibition, DMSO-only negative control wells. Following compound addition, Huh-7 cells containing the DENV2 replicon construct were harvested following standard cell culture procedures and were adjusted to a concentration of 1.25E5 cells/mL in cell culture media composed of cDMEM without genticin. 40 μL of the cell stock was then added to each well for a final cell density of 5,000 cells/well. Cell and compound mixtures were incubated at 37° C./5% CO2 for 48 hours. Prior to harvesting cells, EnduRen Live Cell Substrate (Promega, Cat #E6481) was prepared by suspending 3.4 mg into 100 uL of DMSO to generate a 60 mM stock solution. The stock solution was then diluted 1:200 in pre-warmed cDMEM and 10 uL of this diluted solution was added to each well of the 384 well plates. Plates were then centrifuged at 500 rpm briefly and were placed on a plate shaker for 2 min. Following mixing, plates were incubated at […] for 1.5 hours prior to measuring luminescence on an Envision luminometer.

[2] = system: RSV strain A2; assay: microbe, parasite or virus in culture; conditions: read-out: RSV HEp-2 EC50
Outline: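 Cytopathic-effect protection assay: HEp-2 cells (50,000/mL) infected with pre-titered RSV A2 onto 3-fold serial compound dilutions, incubated 4 days at 37° C. Cell viability read by CellTiter-Glo luminescence; percent inhibition derived against 0% and 100% virus-inhibition controls.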

[3] = system: RSV A2; assay: RSV NHBE EC50 (RSV A2 antiviral assay in NHBE cells); conditions: read-out: RSV NHBE EC50
Outline: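 Luminescent ATP-based viability was recorded in RSV A2-infected normal human bronchial epithelial cells exposed to serially diluted compound (3-fold steps, 0.05% DMSO). Infection used 1×10^4.5 TCID/mL, with a 4-day incubation at 37° C.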

[4] = Dengue virus, DENV2, Huh-7, 48 h, read-out: DENV-2 REP Huh7 EC50
[5] = Dengue virus, DENV2, Huh-7, read-out: DENV Rep EC50
[6] = human respiratory syncytial virus, HEp-2, 96 h, Table 3, HEp-2 cells, RSV A2, 4 days
[7] = human respiratory syncytial virus, HEp-2, Table 5 comparative activity, 2',3'-OH vs -OC(O)iPr
[8] = human respiratory syncytial virus, NHBE, 96 h, Table 3, NHBE cells, RSV A2, 4 days
[9] = human respiratory syncytial virus, NHBE, Table 5 comparative activity, 2',3'-OH vs -OC(O)iPr
[10] = Table 3, Huh-7 DENV2 replicon cells, 48 hours, read-out: DENV-2 REP Huh7 EC50
[11] = Table 3, HEp-2 cells, RSV A2, 4 days
[12] = Table 3, NHBE cells, RSV A2, 4 days

Row | SMILES | EC50 [1, 4] [µM] | EC50 [1, 5] [µM] | EC50 [2, 6] [µM] | EC50 [2, 7] [µM] | EC50 [3, 8] [µM] | EC50 [3, 9] [µM] | EC50 [1, 10] [µM] | EC50 [2, 11] [µM] | EC50 [3, 12] [µM]
1 | CC(C)C(=O)O[C@H]1[C@H](c2ccc3c(N)ncnn23)O[C@](C#N)(COP(=O)(N[C@@H](C)C(=O)OCC2CCOCC2)Oc2ccccc2)[C@H]1OC(=O)C(C)C (mixture of isomers) [Example 181, (2R,3S,4S,5S)-5-(4-aminopyrrolo[2,1-f][1,2,4]triazin-7-yl)-2-cyano-2-((((((S)-1-oxo-1-((tetrahydro-2H-pyran-4-yl)methoxy)propan-2-yl)amino)(phenoxy)phosphoryl)oxy)methyl)tetrahydrofuran-3,4-diyl bis(2-methylpropanoate)] | 6.63 | 6.63 | 0.084 | 0.084 | 0.03 | 0.03 |  |  | 
2 | CC(=O)O[C@H]1[C@H](c2ccc3c(N)ncnn23)O[C@](C#N)(COP(=O)(N[C@@H](C)C(=O)OC2CCOCC2)Oc2ccccc2)[C@H]1OC(C)=O (single isomer, unassigned) [Example 164] |  |  |  |  |  |  | > 100 | 1.69 | 0.148
3 | C[C@H](NP(=O)(OC[C@@]1(C#N)O[C@@H](c2ccc3c(N)ncnn23)[C@H](OC(=O)C(C)(C)C)[C@@H]1OC(=O)C(C)(C)C)Oc1ccccc1)C(=O)OC1CCOCC1 (single isomer, unassigned) [Example 172] |  |  |  |  |  |  | 16.8 | 1.1 | 0.145
4 | CC(C)C(=O)O[C@H]1[C@H](c2ccc3c(N)ncnn23)O[C@](C#N)(COP(=O)(N[C@@H](C)C(=O)OCC(C)(C)O)Oc2ccccc2)[C@H]1OC(=O)C(C)C (single isomer, unassigned) [Example 257] |  |  |  |  |  |  | 7.47 | 0.072 | 0.024
5 | CC(C)C(=O)O[C@H]1[C@H](c2ccc3c(N)ncnn23)O[C@](C#N)(COP(=O)(N[C@@H](C)C(=O)OCC(C)(C)O)Oc2ccccc2)[C@H]1OC(=O)C(C)C (single isomer, unassigned) [Example 258] |  |  |  |  |  |  | 18.3 | 0.091 | 0.034
6 | CCC(=O)OC1[C@H](c2ccc3c(N)ncnn23)O[C@](C#N)(COP(=O)(N[C@@H](C)C(=O)OCC2CCC2)Oc2ccccc2)[C@H]1OC(=O)CC (stereo in doubt) [Example 91, (2R,3S,4R,5S)-5-(4-aminopyrrolo[2,1-f][1,2,4]triazin-7-yl)-2-cyano-2-((((((S)-1-(cyclobutylmethoxy)-1-oxopropan-2-yl)amino)(phenoxy)phosphoryl)oxy)methyl) tetrahydrofuran-3,4-diyl dipropionate] | 10.2 |  | 0.067 |  | 0.023 |  |  |  | 
7 | CC(=O)OC1[C@H](c2ccc3c(N)ncnn23)O[C@](C#N)(COP(=O)(N[C@@H](C)C(=O)OCC2CCC2)Oc2ccccc2)[C@H]1OC(C)=O (stereo in doubt) [Example 94, (2R,3S,4R,5S)-5-(4-aminopyrrolo[2,1-f][1,2,4]triazin-7-yl)-2-cyano-2-((((((S)-1-(cyclobutylmethoxy)-1-oxopropan-2-yl)amino)(phenoxy)phosphoryl)oxy)methyl) tetrahydrofuran-3,4-diyl diacetate] | 13.7 |  | 0.189 |  | 0.041 |  |  |  | 
8 | CC(=O)OC1[C@H](c2ccc3c(N)ncnn23)O[C@](C#N)(COP(=O)(N[C@@H](C)C(=O)OCC2CC2)Oc2ccccc2)[C@H]1OC(C)=O (stereo in doubt) [Example 101, (2R,3S,4R,5S)-5-(4-aminopyrrolo[2,1-f][1,2,4]triazin-7-yl)-2-cyano-2-((((((S)-1-(cyclopropylmethoxy)-1-oxopropan-2-yl)amino)(phenoxy)phosphoryl)oxy)methyl) tetrahydrofuran-3,4-diyl diacetate] | 25.8 |  | 0.094 |  | 0.019 |  |  |  | 
9 | CCC(=O)OC1[C@H](c2ccc3c(N)ncnn23)O[C@](C#N)(COP(=O)(N[C@@H](C)C(=O)OCC2CCN(CC(F)(F)F)CC2)Oc2ccccc2)[C@H]1OC(=O)CC (stereo in doubt) [Example 115, (2R,3S,4R,5S)-5-(4-aminopyrrolo[2,1-f][1,2,4]triazin-7-yl)-2-cyano-2-((((((S)-1-oxo-1-((1-(2,2,2-trifluoroethyl)piperidin-4-yl)methoxy)propan-2-yl)amino)(phenoxy)phosphoryl)oxy)methyl)tetrahydrofuran-3,4-diyl dipropionate] | 20.4 |  | 0.112 |  | 0.022 |  |  |  | 
10 | C[C@H](NP(=O)(OC[C@@]1(C#N)O[C@@H](c2ccc3c(N)ncnn23)[C@H](O)[C@@H]1O)Oc1ccccc1)C(=O)OCC1CCOCC1 (stereo partly drawn) [Example 20, (tetrahydro-2H-pyran-4-yl)methyl ((((2R,3S,4R,5S)-5-(4-aminopyrrolo[2,1-f][1,2,4]triazin-7-yl)-2-cyano-3,4-dihydroxytetrahydrofuran-2-yl)methoxy)(phenoxy)phosphoryl)-L-alaninate] |  | > 50 |  | 0.877 |  | 2.23 |  |  | 
11 | CCC(CC)COC(=O)[C@H](C)N[P@](=O)(OC[C@@]1(C#N)O[C@@H](c2ccc3c(N)ncnn23)[C@H](OC(C)=O)[C@@H]1OC(C)=O)Oc1ccccc1 [Example 88, (2R,3S,4S,5S)-5-(4-aminopyrrolo[2,1-f][1,2,4]triazin-7-yl)-2-cyano-2-((((S)-(((S)-1-(2-ethylbutoxy)-1-oxopropan-2-yl)amino)(phenoxy)phosphoryl)oxy)methyl) tetrahydrofuran-3,4-diyl diacetate] | 8.82 |  | 0.108 |  | 0.042 |  |  |  | 
12 | CC(=O)O[C@H]1[C@H](c2ccc3c(N)ncnn23)O[C@](C#N)(CO[P@](=O)(N[C@@H](C)C(=O)OCC2CC2)Oc2ccccc2)[C@H]1OC(C)=O [Example 103] |  |  |  |  |  |  | 10.5 | 0.094 | 0.032
13 | CC(=O)O[C@H]1[C@H](c2ccc3c(N)ncnn23)O[C@](C#N)(CO[P@@](=O)(N[C@@H](C)C(=O)OCC2CCOCC2)Oc2ccccc2)[C@H]1OC(C)=O [Example 111] |  |  |  |  |  |  | > 100 | 0.873 | 0.044
14 | CC(C)OC(=O)[C@H](C)N[P@](=O)(OC[C@@]1(C#N)O[C@@H](c2ccc3c(N)ncnn23)[C@H](OC(=O)C2COC2)[C@@H]1OC(=O)C1COC1)Oc1ccccc1 [Example 160, (2R,3S,4S,5S)-5-(4-aminopyrrolo[2,1-f][1,2,4]triazin-7-yl)-2-cyano-2-((((S)-(((S)-1-isopropoxy-1-oxopropan-2-yl)amino)(phenoxy)phosphoryl)oxy)methyl) tetrahydrofuran-3,4-diyl bis(oxetane-3-carboxylate)] | 37.4 |  | 0.204 |  | 0.86 |  |  |  | 
15 | CC(C)OC(=O)[C@H](C)NP(=O)(OC[C@@]1(C#N)O[C@@H](c2ccc3c(N)ncnn23)[C@H](OC(=O)C(C)C)[C@@H]1OC(=O)C(C)C)Oc1ccc(C(=O)N(C)C)cc1 (stereo partly drawn) [Example 177, (2R,3S,4S,5S)-5-(4-Aminopyrrolo[2,1-f][1,2,4]triazin-7-yl)-2-cyano-2-((((4-(dimethylcarbamoyl)phenoxy)(((S)-1-isopropoxy-1-oxopropan-2-yl)amino)phosphoryl)oxy)methyl)tetrahydrofuran-3,4-diyl bis(2-methylpropanoate)] | 27.2 |  | 0.12 |  | 0.049 |  |  |  | 
16 | CC(C)C(=O)O[C@H]1[C@H](c2ccc3c(N)ncnn23)O[C@](C#N)(COP(=O)(N[C@@H](C)C(=O)OC[C@H]2CC[C@H](N)CC2)Oc2ccccc2)[C@H]1OC(=O)C(C)C (stereo partly drawn) [Example 207, (2R,3S,4S,5S)-2-((((((S)-1-(((1r,4S)-4-aminocyclohexyl)methoxy)-1-oxopropan-2-yl)amino)(phenoxy)phosphoryl)oxy)methyl)-5-(4-aminopyrrolo[2,1-f][1,2,4]triazin-7-yl)-2-cyanotetrahydrofuran-3,4-diyl bis(2-methylpropanoate)] | > 37.5 |  | 1.08 |  | 0.149 |  |  |  | 
